The text below walks through data of the METLIN SMRT retention time set (Domingo-Almenara et al. 2019).

A short description of this data set: gradient 5% acetonitrile 3 min, to 50% in 2 min, to 85% in 15 min, held 3 min, 100 µL/min. The settings on record: column: Zorbax Extend-C18 2.1 x 50 mm; eluents: water / acetonitrile, 0.1% formic acid. In outline: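 Retention times come from adduct peaks that were picked computationally and then checked by hand. The standards, pure and pooled in mixtures of ~100 molecules, were run on a Zorbax Extend-C18 column (2.1 × 50 mm, 1.8 μm) at 100 μL/min with water and acetonitrile, each with 0.1% formic acid. Detection was by quadrupole time-of-flight mass spectrometry in positive and negative ionization mode, with a dead volume of 40 μL and a dwell volume of 900 μL.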
In the case of `CSc1ncccc1C(=O)N(Cc1ccsc1)Cc1ccccn1`, the RP-LC retention time was found to be 690 s.

`O=C(NCc1cccs1)c1nnc(-c2ccc(S(=O)(=O)N3CCCC3)cc2)o1`: the RP-LC retention time was 849 s.

In turn, `COc1ccc(NC(=O)C2CCN(S(=O)(=O)c3cn(C(C)C)cn3)CC2)cc1` had an RP-LC retention time of 711 s.

`Cc1ccccc1S(=O)(=O)N1CCCC(CCC(=O)NCC2CCCCC2)C1` (stereo not drawn): the RP-LC retention time came out at 580 s.

With `CC(C)C(=O)N1CCN(c2nc(CN3CCCCC3)cs2)CC1`, the RP-LC retention time was 603 s.

`COc1cc(C2C(C(=O)N3CCCC3)CCC(=O)N2c2ccc3c(c2)OCO3)cc(OC)c1OC` (stereo not drawn) gave an RP-LC retention time of 665 s.

On to `CCN1C(=O)COc2ccc(-c3noc(-c4cccc(Br)c4)n3)cc21`, for which the RP-LC retention time turned out to be 1280 s.

In turn, `NS(=O)(=O)c1ccc(NC(=O)c2ccc(Br)cc2F)cc1` came in with an RP-LC retention time of 729 s.

The compound `CCNC(=O)c1ccc(-c2csc(C3CC3)n2)cc1` registered an RP-LC retention time of 796 s.

For the compound `CCc1ccc(NC(=O)N(C)CCc2noc(COc3ccccc3)n2)cc1`, the RP-LC retention time is 962 s.

The compound `Cc1cccc(CNC(=O)CN2CCN(Cc3ccccc3)C2=O)c1` had an RP-LC retention time of 808 s.

In the case of `O=C(C1CC1)N1CCC(c2noc(-c3ccccn3)n2)C1` (stereo not drawn), the RP-LC retention time amounted to 636 s.

Turning to `CCOC(=O)Cc1ccc(NC(=O)N2CCCC2c2c(C)noc2C)cc1` (stereo not drawn), the RP-LC retention time was 775 s.

Take `Cc1nnc(SCC2=C(C(=O)O)N3C(=O)C(NC(=O)Cn4cnnn4)C3SC2)s1` (stereo not drawn): the RP-LC retention time was 641 s.

Compound `O=c1ccc(-c2nc(-c3cccc(Br)c3)no2)cn1Cc1ccncc1` registered an RP-LC retention time of 746 s.

`O=C(NCc1csc(-c2ccccc2)n1)C1CCCN(c2ccc(-c3ccco3)nn2)C1` (stereo not drawn): the RP-LC retention time was 641 s.

For `CC(C)NC(=O)C(=O)NCC(c1ccc2c(c1)CCCN2C)N1CCCCC1` (stereo not drawn), the RP-LC retention time was found to be 671 s.

Take `Cc1cc(NC(=O)c2sc(-c3cn(C)c4ncccc34)nc2C)ccc1F`: the RP-LC retention time is 979 s.

Regarding `Cc1ccccc1-c1ccc(N2CCC(C(=O)Nc3ccc4c(c3)OCCO4)CC2)nn1`, the RP-LC retention time turned out to be 634 s.

The compound `CN(C)c1ccc(NC(=O)c2c(O)c3ccccc3n(-c3ccccc3)c2=O)cc1` gave an RP-LC retention time of 1180 s.

For `CCc1ccc(N2CC(c3noc(-c4ccc(OC)c(OC)c4)n3)CC2=O)cc1` (stereo not drawn), the RP-LC retention time came out at 925 s.

Turning to `Cc1nc(-c2csc(S(=O)(=O)N3CCC(C(=O)NCc4ccccc4)CC3)c2)no1`, the RP-LC retention time was determined as 844 s.

Turning to `CCOc1ccc(-n2cc(C(=O)OCC(=O)OC(C)C)c3ccccc3c2=O)cc1`, the RP-LC retention time was 1140 s.

`CCOCCCNC(=S)Nc1ccc2nc(N3CCN(CC)CC3)cc(C)c2c1`: the RP-LC retention time was 578 s.

In turn, `O=C(c1ccc2nc(N3CCOCC3)sc2c1)N1CCN(c2ccccn2)CC1` returned an RP-LC retention time of 563 s.

The compound `COc1ccc(S(=O)(=O)N2CCCC(c3nnnn3C)C2)cc1` (stereo not drawn) registered an RP-LC retention time of 744 s.

Compound `Cn1nc(C(=O)N2CCCC2)c2c1CCN(C(=O)CCC(=O)N1CCN(c3ccccn3)CC1)C2` displayed an RP-LC retention time of 579 s.

`CN1CCN(c2ccc(-c3ccc(NC(=O)Nc4cccc(Cl)c4)cc3)nn2)CC1` showed an RP-LC retention time of 588 s.

`CCOc1ccc(-n2ccnc(NC(=O)Nc3ccccc3)c2=O)cc1`: the RP-LC retention time is 981 s.

As to `Cc1ccc(NC(=O)N2CCC(c3nc(C(=O)N4CCCC4)c(C)o3)CC2)cc1Cl`, the RP-LC retention time amounted to 895 s.

The compound `Cc1ccc(NC(=O)Cn2cnc3nc(N4CCCC(C(=O)NC(C)C)C4)sc3c2=O)cc1F` (stereo not drawn) registered an RP-LC retention time of 739 s.

`COC(=O)c1c(C)[nH]c(C(=O)N2CCC(CC(=O)N(C)Cc3ccco3)CC2)c1C` showed an RP-LC retention time of 728 s.

As for `CCc1nc(N)n(CC(=O)Nc2ccc(F)cc2C)c(=O)c1C`, the RP-LC retention time came to 626 s.

The compound `COc1ccc(C2C(C(=O)N3CC(C)CC(C)C3)CCC(=O)N2c2ccc(OC)cc2)cc1` (stereo not drawn) returned an RP-LC retention time of 871 s.

`COc1ccc(CNS(=O)(=O)c2cc(-c3[nH]ncc3C(=O)N3CCCC3)oc2C)cc1` came in with an RP-LC retention time of 718 s.

`Cc1ncoc1C(=O)N1CC(F)(F)C[C@H]1c1nc(C2CC2)no1` registered an RP-LC retention time of 768 s.

Turning to `Cn1c(C(=O)NC2CCN(Cc3ccccc3)CC2)cc2c(=O)oc3ccccc3c21`, the RP-LC retention time is 667 s.

In turn, `Cc1nc(S(=O)(=O)N2CCC(C(=O)N3CCN(c4ccccc4F)CC3)CC2)cn1C` registered an RP-LC retention time of 719 s.

`Cc1cc(C(=O)O)c2cc(F)ccc2n1` came in with an RP-LC retention time of 486 s.

On to `Brc1cccc(-c2nc3cnccn3c2NC2CCCCC2)c1`, for which the RP-LC retention time was determined as 1130 s.

The compound `COc1ccccc1OCCN1C(=O)CCc2c(C)ncnc21` returned an RP-LC retention time of 696 s.

As for `CCOC(=O)C1CCN(c2cc3c(cc2NC(=O)NCCC(C)C)n(C)c(=O)n3C)CC1`, the RP-LC retention time amounted to 823 s.

`CC(C)Cn1cc(CCNC(=O)c2ccc(C(F)(F)F)cc2)c2cccnc21` had an RP-LC retention time of 940 s.

For `CCOc1ccccc1-c1noc(Cn2c(=O)n(-c3cccc(OC)c3)c(=O)c3sccc32)n1`, the RP-LC retention time was 964 s.

`COc1cc(OC)c(OC)cc1CN1CCC(C)(c2noc(C3CCOCC3)n2)CC1` registered an RP-LC retention time of 642 s.

In the case of `O=C(c1cccs1)N1CCc2ccc(NS(=O)(=O)C3CCCCC3)cc21`, the RP-LC retention time turned out to be 892 s.

`COc1ccc(NC(=O)N2CCN(c3nc4ccccc4n3C)CC2)cc1OC`: the RP-LC retention time turned out to be 610 s.

`CSc1ccc(-c2noc(Cn3c(=O)n(CC4CCCO4)c(=O)c4ccccc43)n2)cc1` (stereo not drawn) gave an RP-LC retention time of 1070 s.

`Cc1ccc(Cn2nc3c(S(=O)(=O)N4CCOCC4)cccn3c2=O)c(C)c1` gave an RP-LC retention time of 849 s.

In the case of `COc1cc(C2CC(=O)c3c(C)nc(N4CCN(c5ccccn5)CC4)nc3C2)cc(OC)c1OC` (stereo not drawn), the RP-LC retention time worked out at 678 s.

As for `CC(C)(C)c1ccc(C(=O)N2CCN=C2N2CCCC2)cc1`, the RP-LC retention time is 738 s.

`COC(=O)c1ccc(NC(=O)CSc2cc(N3CCN(c4ccc(OC)cc4)CC3)ncn2)cc1` had an RP-LC retention time of 926 s.

In turn, `COc1ccc(N2CCN(c3nc(C(=O)NCC4CC4)cs3)CC2)cc1` returned an RP-LC retention time of 915 s.

For the compound `CN1C(=O)c2cc(C(=O)NC3CCN(Cc4ccccc4)CC3)nn2CC1(C)C(=O)NC1CCCC1` (stereo not drawn), the RP-LC retention time is 610 s.

Take `Cc1noc(C2(NC(=O)c3ccc4c(c3)OCO4)CCCCC2)n1`: the RP-LC retention time was determined as 758 s.

In the case of `CC(=O)N1CCCN(C2=NS(=O)(=O)C(c3ccc(C)c(C)c3)=C2C)CC1`, the RP-LC retention time was 630 s.

On to `COC(=O)c1cccc(C(=O)Nc2cc(Cl)ccc2C)n1`, for which the RP-LC retention time stood at 999 s.

The compound `O=C(Nc1ccc2c(c1)CCN2S(=O)(=O)c1ccccc1)Nc1ccccc1Cl` came in with an RP-LC retention time of 1030 s.

As for `COc1cc([C@@H]2c3cc4c(cc3[C@H](O)[C@@H](CO)[C@@H]2C(=O)N2CCN(C)CC2)OCO4)cc(OC)c1OC`, the RP-LC retention time is 600 s.

As to `Cc1ccccc1-c1ccc(N2CCC(C(=O)NCc3ccco3)CC2)nn1`, the RP-LC retention time amounted to 605 s.

As for `CCOc1cc(C(=O)NC(C(=O)Nc2nc3ccccc3[nH]2)C(C)CC)cc(OCC)c1OCC` (stereo not drawn), the RP-LC retention time is 854 s.

The compound `CSc1sc(C)cc1-c1nsc(=O)o1` came in with an RP-LC retention time of 1110 s.

As to `Cc1ccc(C)c(NC(=O)C2CCN(S(=O)(=O)c3cn(C(C)C)cn3)CC2)c1`, the RP-LC retention time was found to be 767 s.

As for `COc1ccccc1-c1nc2nccc(-c3ccsc3)n2n1`, the RP-LC retention time worked out at 872 s.

`CN(C)C(=O)c1csc(S(=O)(=O)N2CCC(C(=O)NC3CCCCCCC3)CC2)c1` came in with an RP-LC retention time of 835 s.

In the case of `CCc1ccc(C2=C(C)C(N3CCC(C(=O)NCCc4ccco4)CC3)=NS2(=O)=O)cc1`, the RP-LC retention time was found to be 882 s.

Consider `COc1cccc(CC(=O)N2CCC(Nc3ncnc4c3CCC4)C2)c1` (stereo not drawn), for which the RP-LC retention time came to 604 s.

Take `COCCN1C(=O)[C@H]2CN(Cc3cc(Br)ccc3OC)C[C@H]2C1=O`: the RP-LC retention time was 633 s.

Regarding `O=C(Cn1nc(C(=O)N2CCOCC2)c2ccccc21)Nc1cccc(Cl)c1`, the RP-LC retention time is 816 s.

`O=C(c1nnc(-c2ccc(S(=O)(=O)N3CCOCC3)cc2)o1)N1CCN(C2CCCCC2)CC1` had an RP-LC retention time of 647 s.

In turn, `O=C(Cn1cnc2nc(N3CCC(C(=O)NC4CC4)CC3)sc2c1=O)Nc1ccc(Cl)cc1` gave an RP-LC retention time of 686 s.

Turning to `O=C(COc1ccccc1)N1CCc2[nH]nc(-c3ccccc3)c2C1`, the RP-LC retention time stood at 788 s.

Take `CN1CCN(c2c3c(nc4nc(-c5ccccc5)nn24)CCCC3)CC1`: the RP-LC retention time worked out at 582 s.

Turning to `COCCNC(=O)c1nc2ccccn2c1-c1ccc(Cl)cc1`, the RP-LC retention time amounted to 731 s.

Compound `Cc1ccc(CNC(=O)C2CCN(c3cn[nH]c(=O)c3)C2)o1` (stereo not drawn) came in with an RP-LC retention time of 626 s.

As for `CCCN1C(=O)c2c(C(=O)Nc3ccccc3Cl)ncn2CC1(C)C(=O)NC1CCCC1` (stereo not drawn), the RP-LC retention time was 822 s.

The compound `COc1cc(-c2noc(Cn3cnc4c(oc5ccccc54)c3=O)n2)cc(OC)c1OC` gave an RP-LC retention time of 857 s.

In the case of `Cc1cccc(OCc2nc(-c3ccc4oc(C)nc4c3)no2)c1`, the RP-LC retention time is 1180 s.
